Assay results from the NIST ThermoML archive (doi:10.1021/je700190m).
Numbers after ± are expanded uncertainties.

Experiment: wn = mass fraction of the nth substance listed
Conditions: 310 K; 101.3 kPa; Liquid; Concentric cylinders viscometry; w1 = 0.1

viscosity [mPa·s] | Structure (SMILES)
1 ± 0.2 | O=C[C@H](O)[C@@H](O)[C@H](O)[C@H](O)CO [D-glucose] + O
1.03 ± 0.21 | OC[C@@H](O)[C@@H](O)[C@H](O)[C@H](O)CO [mannitol] + O
1.03 ± 0.21 | OC[C@@H](O)[C@H](O)[C@@H](O)CO [xylitol] + O
1.02 ± 0.21 | OC[C@@H](O)[C@@H](O)[C@H](O)[C@@H](O)CO [D-sorbitol] + O
1.05 ± 0.21 | O=C(CO)[C@@H](O)[C@H](O)[C@@H](CO)O[C@H]1O[C@H](CO)[C@@H](O)[C@H](O)[C@H]1O [leucrose] + O
1.06 ± 0.21 | OC[C@H]1O[C@@](CO)(O[C@H]2O[C@H](CO)[C@@H](O)[C@H](O)[C@H]2O)[C@@H](O)[C@@H]1O [D-sucrose] + O
1.1 ± 0.22 | O.O.OC[C@H]1O[C@H](O[C@H]2O[C@H](CO)[C@@H](O)[C@H](O)[C@H]2O)[C@H](O)[C@@H](O)[C@@H]1O [D-(+)-trehalose dihydrate] + O
1.16 ± 0.23 | O=C[C@H](O)[C@@H](O)[C@H](O[C@@H]1O[C@H](CO)[C@H](O)[C@H](O)[C@H]1O)[C@H](O)CO [4-O-β-D-galactopyranosyl-D-glucose] + O
1.22 ± 0.25 | O.O.O.O.O.OC[C@H]1O[C@H](OC[C@H]2O[C@H](O[C@]3(CO)O[C@H](CO)[C@@H](O)[C@@H]3O)[C@H](O)[C@@H](O)[C@@H]2O)[C@H](O)[C@@H](O)[C@H]1O [D-raffinose, pentahydrate] + O
1.08 ± 0.22 | OC[C@@H](O)[C@@H](O[C@H]1O[C@H](CO)[C@@H](O)[C@H](O)[C@H]1O)[C@H](O)[C@@H](O)CO [4-O-α-D-glucopyranosyl-D-glucitol] + O
